Test results taken from patent publication US8030341B2, “Dmt-derivative compounds and related compositions and methods of use” (priority 2005, dated 2011).
Where a name gives a salt, the structure may show the parent alone. Read-outs that look alike come from different tables or passages of the source. Non-standard residues stand in square brackets, D forms with d. Residues, ends and D or L forms follow the SMILES beside them. Dmt = Cc1cc(O)cc(C)c1C[C@H](N)C(=O)O; Tic = O=C(O)[C@@H]1Cc2ccccc2CN1

Experiments:
[1] = target: T1, δ-opioid receptor (Mus musculus, UniProt P32300); assay: mouse vas deferens (MVD) bioassay; format: cell-based; conditions: for MVD Antagonist pA2: versus deltorphin II as agonist; for MVD Antagonist pA2 (nM), value in parentheses (Ke): versus deltorphin II, antilog of pA2
T1 construct: from tissue; host or cells: isolated mouse vas deferens
T1 sequence (P32300 whole entry): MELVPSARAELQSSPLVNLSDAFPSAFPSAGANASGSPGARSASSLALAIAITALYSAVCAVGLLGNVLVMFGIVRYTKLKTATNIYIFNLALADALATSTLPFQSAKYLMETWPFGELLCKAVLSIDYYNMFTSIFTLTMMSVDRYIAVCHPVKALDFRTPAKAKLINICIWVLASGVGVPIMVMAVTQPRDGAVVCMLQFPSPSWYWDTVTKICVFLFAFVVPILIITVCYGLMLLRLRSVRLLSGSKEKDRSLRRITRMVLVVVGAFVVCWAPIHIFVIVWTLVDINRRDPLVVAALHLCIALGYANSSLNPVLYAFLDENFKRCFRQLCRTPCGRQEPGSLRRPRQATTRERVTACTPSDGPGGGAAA
Source text: Bioorg. Med. Chem., 11: 675-678 (2003). The isolated tissues were suspended in organ baths containing balanced salt solutions in a physiological buffer, pH 7.5. […]

[2] = target: μ-opioid receptor (Cavia porcellus, UniProt P97266); assay: guinea pig ileum (GPI) bioassay; format: cell-based
μ-opioid receptor (Cavia porcellus, UniProt P97266), sequence (P97266 whole entry, looked up): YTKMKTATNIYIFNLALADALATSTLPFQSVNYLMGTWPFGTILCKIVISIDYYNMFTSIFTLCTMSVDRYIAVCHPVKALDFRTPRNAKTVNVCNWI
Description: The myenteric plexus longitudinal muscle preparations (2-3 cm segments) from the small intestine of male Hartley strain guinea pigs (GP1) measured μ-opioid receptor agonism and a single mouse vas deferens (MVD) was used to determine δ-opioid receptor agonism as described in Sasaki et al. Bioorg. […] The isolated tissues were suspended in organ baths containing balanced salt solutions in a physiological buffer, pH 7.5. Agonists were tested for the inhibition of electrically evoked contraction and expressed as IC50 (nM) obtained from the dose-response curves.

[3] = target: T2, μ-opioid receptor (Rattus norvegicus, UniProt P33535); assay: opioid receptor binding competition assay, rat brain P2 synaptosomal membranes (μ)
T2 construct: from tissue; host or cells: rat brain P2 synaptosomal membranes (Sprague-Dawley)
T2 sequence (P33535 whole entry): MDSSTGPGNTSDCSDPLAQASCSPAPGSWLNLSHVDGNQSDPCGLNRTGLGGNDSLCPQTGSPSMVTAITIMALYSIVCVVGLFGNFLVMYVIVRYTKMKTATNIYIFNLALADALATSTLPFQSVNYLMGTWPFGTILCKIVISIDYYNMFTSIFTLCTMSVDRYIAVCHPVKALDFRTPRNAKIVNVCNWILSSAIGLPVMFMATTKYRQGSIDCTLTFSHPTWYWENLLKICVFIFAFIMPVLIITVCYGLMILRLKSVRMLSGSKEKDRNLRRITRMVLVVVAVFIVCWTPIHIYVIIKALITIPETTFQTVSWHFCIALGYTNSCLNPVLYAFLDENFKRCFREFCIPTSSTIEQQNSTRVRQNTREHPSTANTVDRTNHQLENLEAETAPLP
Description: (§1) Synaptosomes were preincubated to remove endogenous opioids, washed in excess ice-cold buffer containing protease inhibitor and stored in a glycerol-containing buffer with protease inhibitor at −80° C. as described in Lazarus et al., J. Med. Chem. 34:1350-55 (1991). […] After incubation, the radiolabeled membranes were rapidly filtered on Whatman GF/C glass fiber filters presoaked in 0.1% polyethylenimine in order to optimize the signal-to-noise ratio, washed with ice-cold BSA buffer, and dried at 75-80° C. Radioactivity was determined using EcoLume (ICN, Costa Mesa, Calif.). All compounds were analyzed in duplicate using 5-8 peptide dosages and several synaptosomal preparations in independent repetitions to ensure statistical significance. The affinity constants (Ki) were calculated according to Cheng and Prusoff (Cheng et al., Biochem. Pharmacol., 22: 3099-3108 ([…])).

[4] = target: T3, δ-opioid receptor (Rattus norvegicus, UniProt P33533); assay: opioid receptor binding competition assay, rat brain P2 synaptosomal membranes (δ); conditions: for Ki(μ)/Ki(δ): selectivity ratio
T3 construct: from tissue; host or cells: rat brain P2 synaptosomal membranes (Sprague-Dawley)
T3 sequence (P33533 whole entry): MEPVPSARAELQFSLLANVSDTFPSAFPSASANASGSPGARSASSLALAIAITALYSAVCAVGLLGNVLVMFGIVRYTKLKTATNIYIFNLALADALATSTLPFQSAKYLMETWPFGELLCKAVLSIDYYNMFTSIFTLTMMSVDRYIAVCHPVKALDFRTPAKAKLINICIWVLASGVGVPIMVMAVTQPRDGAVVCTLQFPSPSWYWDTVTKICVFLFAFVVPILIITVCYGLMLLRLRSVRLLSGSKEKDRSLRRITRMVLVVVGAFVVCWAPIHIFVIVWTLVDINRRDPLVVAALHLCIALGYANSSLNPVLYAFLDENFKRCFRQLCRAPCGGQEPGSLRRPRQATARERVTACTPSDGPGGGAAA
Description: as §1

[5] = target: T3, δ-opioid receptor; conditions: Table 3; reference rows marked e, f, g (no SE, no n); cited from earlier work
[6] = target: T2, μ-opioid receptor; conditions: Table 3, reference rows marked e, f, cited from earlier work
[7] = Table 2, inhibition of electrically evoked contraction, read-out: MVD agonist IC50
[8] = Table 2, inhibition of electrically evoked contraction, read-out: GPI agonist IC50
[9] = Table 1, rat brain synaptosomes, footnote b: versus [3H]DPDPE, read-out: Ki(μ)
[10] = Table 1, rat brain synaptosomes, footnote a: versus [3H]DAMGO, read-out: Ki(δ)

## Cc1cc(O)cc(C)c1CC(N)C(=O)N1Cc2ccccc2CC1C(=O)NCCCCCCCCCCNC(=O)C1Cc2ccccc2CN1C(=O)C(N)Cc1c(C)cc(O)cc1C (stereo not shown) (as salt: HCl) [Compound 20, 1,10-Bis(Drat-Tic-amino)decane]
other
  melting point: 205 to 207 °C

## Cc1cc(O)cc(C)c1CC(C(=O)N1Cc2ccccc2CC1C(=O)NCCCCCCNC(=O)C1Cc2ccccc2CN1C(=O)C(Cc1c(C)cc(O)cc1C)N(C)C)N(C)C (stereo not drawn) (as salt: HCl) [Compound 21, 1,6-Bis(N,N-Dimethyl-Dmt-Tic-NH)-hexane]
other
  melting point: 195 to 197 °C

## 3-(Dmt-Tic-NH-butyl)-6-(Dmt-Tic-NH-propyl)-2(1H)-pyrazinone [Compound 13]
[1]; [7]
  IC50: > 10000 nM
[1]; Table 2
  MVD Antagonist pA2: 10.47
  MVD Antagonist pA2 (nM), value in parentheses (Ke): 0.0339 nM
[2]; [8]
  IC50: > 10000 nM
[2]; Table 2, versus endomorphin-2, antilog of pA2
  GPI Antagonist pA2 (nM), value in parentheses (Ke): 112 nM
[2]; Table 2, versus endomorphin-2 as agonist
  GPI Antagonist pA2: 6.95
[3]; [9]
  Ki: 2.28 ± 0.03 nM
[4]; [10]
  Ki: 0.092 ± 0.01 nM
[4]; Table 1
  Ki(μ)/Ki(δ): 25

## Cc1cc(O)cc(C)c1C[C@H](N)C(=O)N1Cc2ccccc2C[C@H]1C(=O)O [H-Dmt-Tic-OH, reference compound] (H-[Dmt]-[Tic]-OH)
[1]; Table 2, inhibition of electrically evoked contraction
  MVD agonist IC50, nM: none

## 3,6-Bis(Dmt-Tic-NH-butyl)-2(1H)-pyrazinone [Compound 11]
[1]; [7]
  IC50: > 10000 nM
[1]; Table 2
  MVD Antagonist pA2: 11.06
  MVD Antagonist pA2 (nM), value in parentheses (Ke): 0.0871 nM
[2]; [8]
  IC50: > 10000 nM
[3]; [9]
  Ki: 1.74 ± 0.14 nM
[4]; [10]
  Ki: 0.323 ± 0.007 nM
[4]; Table 1
  Ki(μ)/Ki(δ): 5

## Cc1cc(O)cc(C)c1CC(N)C(=O)N1Cc2ccccc2CC1C(=O)NCCCCCCCCCCNC(=O)C1Cc2ccccc2CN1C(=O)C(N)Cc1c(C)cc(O)cc1C (stereo not shown) [Compound 20, 1,10-Bis(Drat-Tic-amino)decane]
[1]
  IC50: > 10000 nM
[1]; Table 2
  MVD Antagonist pA2 (nM), value in parentheses (Ke): 0.0107 nM
[2]
  IC50: 5420 ± 1840 nM
[3]
  Ki: 4.86 ± 0.41 nM
[4]
  Ki: 1.53 ± 0.16 nM
[4]; Table 1
  Ki(μ)/Ki(δ): 3

## 3,6-Bis(Dmt-Tic-NH-propyl)˜2(1H)-pyrazinone [Compound 10]
[1]; [7]
  IC50: > 10000 nM
[1]; Table 2
  MVD Antagonist pA2: 10.56
  MVD Antagonist pA2 (nM), value in parentheses (Ke): 0.0275 nM
[2]; [8]
  IC50: 7020 ± 2470 nM
[3]; [9]
  Ki: 3.08 ± 0.17 nM
[4]; [10]
  Ki: 0.155 ± 0.016 nM
[4]; Table 1
  Ki(μ)/Ki(δ): 20

## H-Dmt-Pro-Phe-Phe-NH2 [[Dmt^1]EM-2]
[5]
  Ki: 28.2 nM
[6]; g (no SE, no n)
  Ki: 0.15 nM
[6]; g
  Ki(δ)/Ki(μ): 188

## Cc1cc(O)cc(C)c1CC(N)C(=O)N1Cc2ccccc2CC1C(=O)NCCCCNC(=O)C1Cc2ccccc2CN1C(=O)C(N)Cc1c(C)cc(O)cc1C (stereo not drawn) (as salt: HCl) [Compound 18, 1,4-Bis(Dmt-Tic-amino)butane]
other
  melting point: 215 to 217 °C

## Cc1cc(O)cc(C)c1CC(N)C(=O)N1Cc2ccccc2CC1C(=O)NCCCCCCNC(=O)C1Cc2ccccc2CN1C(=O)C(N)Cc1c(C)cc(O)cc1C (stereo not drawn) (as salt: HCl) [Compound 19, 1,6-Bis(Dmt-Tic-amino)hexane]
other
  melting point: 215 to 217 °C

## C=CCN[C@@H](Cc1c(C)cc(O)cc1C)C(=O)NCCCc1[nH]c(=O)c(CCCNC(=O)[C@H](Cc2c(C)cc(O)cc2C)NCC=C)nc1C [Compound 32, Bis-[(N-allyl)Dmt-NH-propyl]pyrazinone]
[1]
  Kb: 269 nM
[1]; Table 4, agonism, read-out: MVD
  IC50: > 10000 nM
[2]
  Kb: 67.6 nM
[2]; Table 4, agonism, read-out: GPI
  IC50: > 10000 nM
[2]; Table 4, selectivity of antagonism
  pA2(μ)/pA2(δ): 4
[3]
  Ki: 12.4 ± 1.1 nM
[3]; Table 3, selectivity ratio
  Ki(δ)/Ki(μ): 4
[4]
  Ki: 51.5 ± 4.1 nM

## Cc1cc(O)cc(C)c1CC(N)C(=O)N1Cc2ccccc2CC1C(=O)NCCCCCCNC(=O)C1Cc2ccccc2CN1C(=O)C(N)Cc1c(C)cc(O)cc1C (stereo not drawn) [Compound 19, 1,6-Bis(Dmt-Tic-amino)hexane]
[1]
  IC50: > 10000 nM
[1]; Table 2
  MVD Antagonist pA2 (nM), value in parentheses (Ke): 0.024 nM
[3]
  Ki: 1.79 ± 0.08 nM
[4]
  Ki: 0.129 ± 0.03 nM
